The nature of this data set: Median particle size of salsalate before and after Microfluidics homogenizer passes. Type of data set: physicochemical. The source says: Using a Microfluidics® Homogenizer 40, passes with the device take the median particle size of salsalate FIG. 1 from about 40 microns down to about 2.4 microns, as shown in FIG. 2. The resulting salsalate is formulated into unit dose oral dosages, as noted above.

Results on one compound are retold here after patent publication US9649289B1, “Method and composition for treating dysbiosis and related disease states” (BioAvivus, LLT, priority 2016, dated 2017).

SMILES strings stand for the structures.

Take `O=C(Oc1ccccc1C(=O)O)c1ccccc1O` [salsalate]: the median particle size result reads like this: (after 40 passes with Microfluidics Homogenizer (micronized salsalate of the invention)) “about 2.4 microns”; (after 40 passes with Microfluidics Homogenizer (micronized salsalate of the invention), listed as Salsalate) 2.4 microns; (starting (regular) salsalate, before homogenization) “about 40 microns”.
